{"source": "patent US10131664B2", "about": "(Celgene Quanticel Research, Inc., priority 2013, dated 2018)", "key": {"full-length human LSD1": {"target": "full-length human LSD1 (Homo sapiens (Human), UniProt O60341)", "assay": "In vitro enzyme inhibition assay LSD-1 (TR-FRET)", "type": "biochemical", "settings": "TR-FRET, 0.1 nM LSD1, 50 nM H3K4me1-biotin peptide, 2 μM FAD, pH7.3; read-out: LSD1 IC50", "protocol": "This assay determines the ability of a test compound to inhibit LSD1 demethylase activity.\nThe enzymatic assay of LSD1 activity is based on Time Resolved-Fluorescence Resonance Energy Transfer (TR-FRET) detection.\nThe ability of the compounds disclosed herein to inhibit LSD1 activity was quantified and the respective IC50 value was determined. Table 5 provides the IC50 values of various substituted heterocyclic compounds disclosed herein."}, "THP-1 (AML) cells": {"tested_on": "THP-1 (AML) cells", "assay": "LSD1 CD11b cellular assay (flow cytometry)", "type": "cell-based", "settings": "Homo sapiens, 96 h; CD11b expression in THP-1 (AML) cells, flow cytometry, 4 days incubation; read-out: Cellular IC50", "method_in_brief": "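THP-1 AML cells treated with serially diluted compound (0.2% DMSO final) for 4 days at 37 °C, 5% CO2. CD11b expression measured by flow cytometry with DAPI staining; IC50 derived from percent CD11b-positive cells versus inhibitor concentration.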"}}, "data": [{"smiles": "N#Cc1ccc(-c2nc(N3CCC(N)CC3)ncc2-c2ccc(OCC(F)(F)F)nc2)cc1", "note": "[Example 131, 4-[2-(4-aminopiperidin-1-yl)-5-[6-(2,2,2-trifluoroethoxy)pyridin-3-yl]pyrimidin-4-yl]benzonitrile]", "values": [{"measurement": "IC50", "setting": "full-length human LSD1", "value": "< 100", "unit": "nM"}, {"measurement": "IC50", "setting": "THP-1 (AML) cells", "value": "100 to 1000", "unit": "nM"}]}, {"smiles": "Cn1cnc2cc(-c3cnc(N4CCC(N)CC4)nc3-c3ccc(C#N)c(F)c3)c(F)c(F)c21", "note": "[Example 132, 4-[2-(4-aminopiperidin-1-yl)-5-(6,7-difluoro-1-methylbenzimidazol-5-yl)pyrimidin-4-yl]-2-fluorobenzonitrile]", "values": [{"measurement": "IC50", "setting": "full-length human LSD1", "value": "< 100", "unit": "nM"}, {"measurement": "IC50", "setting": "THP-1 (AML) cells", "value": "< 100", "unit": "nM"}]}, {"smiles": "Cn1cnc2cc(-c3cnc(N4CCC(N)CC4)nc3-c3ccc(C#N)c(F)c3)c(F)cc21", "note": "[Example 133, 4-[2-(4-aminopiperidin-1-yl)-5-(6-fluoro-1-methylbenzimidazol-5-yl)pyrimidin-4-yl]-2-fluorobenzonitrile]", "values": [{"measurement": "IC50", "setting": "full-length human LSD1", "value": "< 100", "unit": "nM"}, {"measurement": "IC50", "setting": "THP-1 (AML) cells", "value": "< 100", "unit": "nM"}]}, {"smiles": "CN(C)c1ncc(-c2cnc(N3CCC(N)CC3)nc2-c2ccc(C#N)c(F)c2)cn1", "note": "[Example 134, 4-[2-(4-aminopiperidin-1-yl)-5-[2-(dimethylamino)pyrimidin-5-yl]pyrimidin-4-yl]-2-fluorobenzonitrile]", "values": [{"measurement": "IC50", "setting": "full-length human LSD1", "value": "< 100", "unit": "nM"}, {"measurement": "IC50", "setting": "THP-1 (AML) cells", "value": "< 100", "unit": "nM"}]}, {"smiles": "N#Cc1ccc(-c2nc(N3CCC(N)CC3)ncc2-c2cnc(N3CCCC3)nc2)cc1F", "note": "[Example 135, 4-[2-(4-aminopiperidin-1-yl)-5-(2-pyrrolidin-1-ylpyrimidin-5-yl)pyrimidin-4-yl]-2-fluorobenzonitrile]", "values": [{"measurement": "IC50", "setting": "full-length human LSD1", "value": "< 100", "unit": "nM"}, {"measurement": "IC50", "setting": "THP-1 (AML) cells", "value": "< 100", "unit": "nM"}]}, {"smiles": "Cn1cnc2cc(-c3cnc(N4CCC(N)CC4)nc3-c3ccc(C#N)c(F)c3)cnc21", "note": "[Example 136, 4-[2-(4-aminopiperidin-1-yl)-5-(3-methylimidazo[4,5-b]pyridin-6-yl)pyrimidin-4-yl]-2-fluorobenzonitrile]", "values": [{"measurement": "IC50", "setting": "full-length human LSD1", "value": "< 100", "unit": "nM"}, {"measurement": "IC50", "setting": "THP-1 (AML) cells", "value": "< 100", "unit": "nM"}]}, {"smiles": "Cn1cnc2cc(-c3cnc(N4CCC5(CCNC5)CC4)nc3-c3ccc(C#N)c(F)c3)cnc21", "note": "[Example 137, 4-[2-(2,8-diazaspiro[4.5]decan-8-yl)-5-(3-methylimidazo[4,5-b]pyridin-6-yl)pyrimidin-4-yl]-2-fluorobenzonitrile]", "values": [{"measurement": "IC50", "setting": "full-length human LSD1", "value": "< 100", "unit": "nM"}, {"measurement": "IC50", "setting": "THP-1 (AML) cells", "value": "< 100", "unit": "nM"}]}, {"smiles": "Cc1nc2cc(-c3cnc(N4CCC(N)CC4)nc3-c3ccc(C#N)c(F)c3)ccc2n1C", "note": "[Example 138, 4-[2-(4-aminopiperidin-1-yl)-5-(1,2-dimethylbenzimidazol-5-yl)pyrimidin-4-yl]-2-fluorobenzonitrile]", "values": [{"measurement": "IC50", "setting": "full-length human LSD1", "value": "< 100", "unit": "nM"}, {"measurement": "IC50", "setting": "THP-1 (AML) cells", "value": "< 100", "unit": "nM"}]}, {"smiles": "Cn1nnc2cc(-c3cnc(N4CCC(N)CC4)nc3-c3ccc(C#N)c(F)c3)cnc21", "note": "[Example 139, 4-[2-(4-aminopiperidin-1-yl)-5-(3-methyltriazolo[4,5-b]pyridin-6-yl)pyrimidin-4-yl]-2-fluorobenzonitrile]", "values": [{"measurement": "IC50", "setting": "full-length human LSD1", "value": "< 100", "unit": "nM"}, {"measurement": "IC50", "setting": "THP-1 (AML) cells", "value": "< 100", "unit": "nM"}]}, {"smiles": "CNc1ncc(-c2cnc(N3CCC(N)CC3)nc2-c2ccc(C#N)c(F)c2)cn1", "note": "[Example 140, 4-[2-(4-aminopiperidin-1-yl)-5-[2-(methylamino)pyrimidin-5-yl]pyrimidin-4-yl]-2-fluorobenzonitrile]", "values": [{"measurement": "IC50", "setting": "full-length human LSD1", "value": "< 100", "unit": "nM"}, {"measurement": "IC50", "setting": "THP-1 (AML) cells", "value": "100 to 1000", "unit": "nM"}]}, {"smiles": "N#Cc1ccc(-c2nc(N3CCC(N)CC3)ncc2-c2cnc(NC3CC3)nc2)cc1F", "note": "[Example 141, 4-[2-(4-aminopiperidin-1-yl)-5-[2-(cyclopropylamino)pyrimidin-5-yl]pyrimidin-4-yl]-2-fluorobenzonitrile]", "values": [{"measurement": "IC50", "setting": "full-length human LSD1", "value": "< 100", "unit": "nM"}, {"measurement": "IC50", "setting": "THP-1 (AML) cells", "value": "< 100", "unit": "nM"}]}, {"smiles": "N#Cc1ccc(-c2nc(N3CCC(N)CC3)ncc2-c2cnn(C3CCOCC3)c2)cc1F", "note": "[Example 142, 4-[2-(4-aminopiperidin-1-yl)-5-[1-(oxan-4-yl)pyrazol-4-yl]pyrimidin-4-yl]-2-fluorobenzonitrile]", "values": [{"measurement": "IC50", "setting": "full-length human LSD1", "value": "< 100", "unit": "nM"}, {"measurement": "IC50", "setting": "THP-1 (AML) cells", "value": "< 100", "unit": "nM"}]}, {"smiles": "Cn1cc2cc(-c3cnc(N4CCC(N)C4)nc3-c3ccc(C#N)c(F)c3)ccc2n1", "note": "(centres unmarked) [Example 143, 4-[2-(3-aminopyrrolidin-1-yl)-5-(2-methylindazol-5-yl)pyrimidin-4-yl]-2-fluorobenzonitrile]", "values": [{"measurement": "IC50", "setting": "full-length human LSD1", "value": "< 100", "unit": "nM"}, {"measurement": "IC50", "setting": "THP-1 (AML) cells", "value": "< 100", "unit": "nM"}]}]}
